Measured values reported in PubChem BioAssay (NCI).
Values joined by “and” are separate entries in the source; they are usually repeats but may differ in a detail not shown here. Equal values may be shown once.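 Each compound was tested at five concentrations against cells in 96-well plates for 48 hours. GI50 = concentration required for 50% inhibition of growth. TGI: concentration producing complete growth inhibition.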

Key:
Assay in all cases: NCI tumour cell line growth inhibition, 48 h
[1] = test system: T-47D breast
[2] = test system: UO-31 renal
[3] = test system: BT-549 breast
[4] = test system: SK-OV-3 ovarian
[5] = test system: MCF7 breast
[6] = test system: OVCAR-5 ovarian
[7] = test system: XF 498 CNS
[8] = test system: NCI/ADR-RES ovarian
[9] = test system: HCC-2998 colon
[10] = test system: SK-MEL-5 melanoma
[11] = test system: DLD-1 colon
[12] = test system: P388 leukemia
[13] = test system: HOP-92 NSCLC
[14] = test system: SNB-78 CNS
[15] = test system: HCT-116 colon
[16] = test system: K-562 leukemia
[17] = test system: EKVX NSCLC
[18] = test system: CCRF-CEM leukemia
[19] = test system: SN12C renal
[20] = test system: KM20L2 colon
[21] = test system: SF-295 CNS
[22] = test system: MDA-MB-435
[23] = test system: TK-10 renal
[24] = test system: NCI-H522 lung
[25] = test system: COLO 205 colon
[26] = test system: NCI-H460 lung
[27] = test system: SR leukemia
[28] = test system: DMS 114 small cell lung
[29] = test system: OVCAR-8 ovarian
[30] = test system: LOX IMVI melanoma
[31] = test system: OVCAR-3 ovarian
[32] = test system: ACHN renal
[33] = test system: SK-MEL-28 melanoma
[34] = test system: A549 NSCLC
[35] = test system: HS 578T breast
[36] = test system: HOP-62 NSCLC
[37] = test system: SF-539 CNS
[38] = test system: KM12 colon
[39] = test system: HOP-18 NSCLC
[40] = test system: NCI-H226 lung
[41] = test system: PC-3 prostate
[42] = test system: CAKI-1 renal
[43] = test system: M14 melanoma
[44] = test system: SW-620 colon
[45] = test system: SN12K1 renal
[46] = test system: MDA-MB-231 breast
[47] = test system: RPMI-8226 leukemia
[48] = test system: SK-MEL-2 melanoma
[49] = test system: U251 CNS
[50] = test system: SNB-19 CNS
[51] = test system: 786-0 renal
[52] = test system: MDA-N
[53] = test system: MOLT-4 leukemia
[54] = test system: P388/ADR leukemia
[55] = test system: HCT-15 colon
[56] = test system: HL-60(TB) leukemia
[57] = test system: RXF 393 renal
[58] = test system: OVCAR-4 ovarian
[59] = test system: SNB-75 CNS
[60] = test system: MALME-3M melanoma
[61] = test system: SF-268 CNS
[62] = test system: NCI-H23 lung
[63] = test system: IGROV1 ovarian
[64] = test system: HT29 colon
[65] = test system: UACC-257 melanoma
[66] = test system: UACC-62 melanoma
[67] = test system: DMS 273 small cell lung
[68] = test system: A498 renal
[69] = test system: DU-145 prostate
[70] = test system: M19-MEL melanoma

SMILES: ClCCCN1CCN(CCCl)CC1
- TGI [1]: > 745 µM
- GI50 [2]: 56.4 µM
- TGI [2]: 493 µM
- TGI [3]: 423 µM
- TGI [4]: 166 µM
- TGI [5]: 736 µM
- TGI [6]: 737 µM
- TGI [7]: 147 µM
- GI50 [8]: 66.3 µM
- TGI [8]: 628 µM
- TGI [9]: 997 µM
- TGI [10]: 647 µM
- TGI [11]: 319 µM
- TGI [12]: > 840 µM
- GI50 [13]: 0.0248 µM
- TGI [14]: > 567 µM
- TGI [15]: 747 µM
- GI50 [16]: 82.9 µM
- TGI [16]: > 965 µM
- TGI [17]: 873 µM
- GI50 [18]: 2.54 µM
- TGI [18]: 437 µM
- GI50 [19]: 8.8 µM
- TGI [19]: 626 µM
- TGI [20]: > 1000 µM
- GI50 [21]: 40.8 µM
- TGI [21]: 456 µM
- TGI [22]: > 930 µM
- TGI [23]: > 903 µM
- GI50 [24]: 54.9 µM
- TGI [24]: 356 µM
- TGI [25]: 468 µM
- GI50 [26]: 7.97 µM
- TGI [26]: 356 µM
- GI50 [27]: 3.44 µM
- TGI [28]: 203 µM
- TGI [29]: 348 µM
- GI50 [30]: 23.9 µM
- TGI [30]: 608 µM
- GI50 [31]: 84.3 µM
- TGI [31]: 430 µM
- GI50 [32]: 7.09 µM
- TGI [32]: 265 µM
- TGI [33]: > 1000 µM
- GI50 [34]: 96.2 µM
- TGI [34]: > 851 µM
- TGI [35]: 885 µM
- TGI [36]: 168 µM
- GI50 [37]: 27.9 µM
- TGI [37]: 233 µM
- TGI [38]: > 1000 µM
- TGI [39]: > 1000 µM
- TGI [40]: 879 µM
- TGI [41]: > 1000 µM
- TGI [42]: 358 µM
- GI50 [43]: 77.2 µM
- TGI [43]: 872 µM
- GI50 [44]: 83.7 µM
- TGI [44]: > 873 µM
- TGI [45]: 575 µM
- TGI [46]: > 768 µM
- TGI [47]: 743 µM
- TGI [48]: 760 µM
- GI50 [49]: 79.6 µM
- TGI [49]: 543 µM
- GI50 [50]: 99.1 µM
- TGI [50]: > 1000 µM
- TGI [51]: 427 µM
- TGI [52]: 742 µM
- GI50 [53]: 1.39 µM
- TGI [53]: 110 µM
- TGI [54]: > 529 µM
- TGI [55]: 790 µM
- TGI [56]: 62.3 µM and 141 µM
- TGI [57]: 439 µM
- TGI [58]: 430 µM
- GI50 [59]: 43.2 µM
- TGI [59]: 681 µM
- TGI [60]: 390 µM
- GI50 [61]: 38.6 µM
- TGI [61]: > 892 µM
- GI50 [62]: 19.5 µM
- TGI [62]: 586 µM
- TGI [63]: 652 µM
- TGI [64]: > 818 µM
- TGI [65]: > 1000 µM
- GI50 [66]: 20 µM
- TGI [66]: 92 µM
- TGI [67]: 475 µM
- TGI [68]: 774 µM
- GI50 [69]: 26.9 µM
- TGI [69]: 692 µM
- TGI [70]: 773 µM
